In brackets after ≈: the same amount, converted by molar mass.
Columns and labels:
Citrobacter freundii [1] = test: In vitro minimal inhibitory concentration (MIC) of compound in combination with piperacillin (PIPC) showed synergic activity against Citrobacter freundii 2046E; type: functional
Citrobacter freundii [2] = test: In vitro minimal inhibitory concentration (MIC) of compound in combination with piperacillin (PIPC) showed synergic activity against Citrobacter freundii 44032; type: functional
Escherichia coli [3] = test: In vitro minimal inhibitory concentration (MIC) of compound in combination with piperacillin (PIPC) showed synergic activity against Escherichia coli TEM 3; type: functional
Klebsiella aerogenes [4] = test: In vitro minimal inhibitory concentration (MIC) of compound in combination with piperacillin (PIPC) showed synergic activity against Enterobacter aerogenes 41003; type: functional
Klebsiella aerogenes [5] = test: In vitro minimal inhibitory concentration (MIC) of compound in combination with piperacillin (PIPC) showed synergic activity against Enterobacter aerogenes 41004; type: functional
Enterobacter cloacae [6] = test: In vitro minimal inhibitory concentration (MIC) of compound in combination with piperacillin (PIPC) showed synergic activity against Enterobacter cloacae 40011; type: functional
Enterobacter cloacae [7] = test: In vitro minimal inhibitory concentration (MIC) of compound in combination with piperacillin (PIPC) showed synergic activity against Enterobacter cloacae 40015; type: functional
Enterobacter cloacae [8] = test: In vitro minimal inhibitory concentration (MIC) of compound in combination with piperacillin (PIPC) showed synergic activity against Enterobacter cloacae P99; type: functional
Escherichia coli [9] = test: In vitro minimal inhibitory concentration (MIC) of compound in combination with piperacillin (PIPC) showed synergic activity against Escherichia coli SHV 5; type: functional
Escherichia coli [10] = test: In vitro minimal inhibitory concentration (MIC) of compound in combination with piperacillin (PIPC) showed synergic activity against Escherichia coli TEM 7; type: functional
Escherichia coli [11] = test: In vitro minimal inhibitory concentration (MIC) of compound in combination with piperacillin (PIPC) showed synergic activity against Escherichia coli OXA 1; type: functional
Escherichia coli [12] = test: In vitro minimal inhibitory concentration (MIC) of compound in combination with piperacillin (PIPC) showed synergic activity against Escherichia coli SHV 1; type: functional
Klebsiella pneumoniae [13] = test: In vitro minimal inhibitory concentration (MIC) of compound in combination with piperacillin (PIPC) showed synergic activity against Klebsiella pneumoniae CTX 1; type: functional
Morganella morganii [14] = test: In vitro minimal inhibitory concentration (MIC) of compound in combination with piperacillin (PIPC) showed synergic activity against Morganella morganii 36014; type: functional
Pseudomonas aeruginosa [15] = test: In vitro minimal inhibitory concentration (MIC) of compound in combination with piperacillin (PIPC) showed synergic activity against Pseudomonas aeruginosa 46220 (DR-2); type: functional
Proteus vulgaris [16] = test: In vitro minimal inhibitory concentration (MIC) of compound in combination with piperacillin (PIPC) showed synergic activity against Proteus vulgaris CT 106; type: functional
Staphylococcus aureus [17] = test: In vitro minimal inhibitory concentration (MIC) of compound in combination with piperacillin (PIPC) showed synergic activity against Staphylococcus aureus 80K; type: functional
Escherichia coli [18] = test: In vitro minimal inhibitory concentration (MIC) of compound in combination with piperacillin (PIPC) showed synergic activity against Escherichia coli OXA 3; type: functional
Serratia marcescens = test: In vitro minimal inhibitory concentration (MIC) of compound in combination with piperacillin (PIPC) showed synergic activity against Serratia marcescens 200 L; type: functional
Klebsiella aerogenes [19] = test: In vitro minimal inhibitory concentration (MIC) of compound in combination with piperacillin (PIPC) showed synergic activity against Enterobacter aerogenes 41006; type: functional
Staphylococcus aureus [20] = test: In vitro minimal inhibitory concentration (MIC) of compound in combination with piperacillin (PIPC) showed synergic activity against Staphylococcus aureus 54K; type: functional
Citrobacter freundii [21] = test: In vitro minimal inhibitory concentration (MIC) of compound against Citrobacter freundii 44032; type: functional
Klebsiella aerogenes [22] = test: In vitro minimal inhibitory concentration (MIC) of compound against Enterobacter aerogenes 41003; type: functional
Klebsiella aerogenes [23] = test: In vitro minimal inhibitory concentration (MIC) of compound against Enterobacter aerogenes 41004; type: functional
Klebsiella aerogenes [24] = test: In vitro minimal inhibitory concentration (MIC) of compound against Enterobacter aerogenes 41006; type: functional
Klebsiella aerogenes [25] = test: In vitro minimal inhibitory concentration (MIC) of compound against Enterobacter aerogenes S-97; type: functional
Enterobacter cloacae [26] = test: In vitro minimal inhibitory concentration (MIC) of compound against Enterobacter cloacae 40011; type: functional
Enterobacter cloacae [27] = test: In vitro minimal inhibitory concentration (MIC) of compound against Enterobacter cloacae E40002; type: functional
Enterobacter cloacae [28] = test: In vitro minimal inhibitory concentration (MIC) of compound against Enterobacter cloacae P99; type: functional
Enterobacter cloacae [29] = test: In vitro minimal inhibitory concentration (MIC) of compound against Enterobacter cloacae S-11; type: functional
Enterobacter cloacae [30] = test: In vitro minimal inhibitory concentration (MIC) of compound against Enterobacter cloacae S-65; type: functional
Escherichia coli [31] = test: In vitro minimal inhibitory concentration (MIC) of compound against Escherichia coli TEM 3; type: functional
Escherichia coli [32] = test: In vitro minimal inhibitory concentration (MIC) of compound against Escherichia coli TEM 7; type: functional
Klebsiella pneumoniae [33] = test: In vitro minimal inhibitory concentration (MIC) of compound against Klebsiella pneumoniae CTX 1; type: functional
Morganella morganii [34] = test: In vitro minimal inhibitory concentration (MIC) of compound against Morganella morganii 36014; type: functional
Morganella morganii [35] = test: In vitro minimal inhibitory concentration (MIC) of compound against Morganella morganii 36030; type: functional
Pseudomonas aeruginosa [36] = test: In vitro minimal inhibitory concentration (MIC) of compound against Pseudomonas aeruginosa 46220 (DR-2); type: functional
Pseudomonas aeruginosa [37] = test: In vitro minimal inhibitory concentration (MIC) of compound against Pseudomonas aeruginosa CT-122; type: functional
Pseudomonas aeruginosa [38] = test: In vitro minimal inhibitory concentration (MIC) of compound against Pseudomonas aeruginosa CT-137; type: functional
Proteus vulgaris [39] = test: In vitro minimal inhibitory concentration (MIC) of compound against Proteus vulgaris CT 106; type: functional
Citrobacter freundii [40] = test: In vitro minimal inhibitory concentration (MIC) of compound against Citrobacter freundii CT 76; type: functional
Klebsiella aerogenes [41] = test: In vitro minimal inhibitory concentration (MIC) of compound in combination with Ceftazidime (CAZ) showed synergic activity against Enterobacter aerogenes S-97; type: functional
Enterobacter cloacae [42] = test: In vitro minimal inhibitory concentration (MIC) of compound in combination with Ceftazidime (CAZ) showed synergic activity against Enterobacter cloacae S-65; type: functional
Enterobacter cloacae [43] = test: In vitro minimal inhibitory concentration (MIC) of compound in combination with Ceftazidime (CAZ) showed synergic activity against Enterobacter cloacae S-11; type: functional
Morganella morganii [44] = test: In vitro minimal inhibitory concentration (MIC) of compound in combination with Ceftazidime (CAZ) showed synergic activity against Morganella morganii 36014; type: functional; details: Morganella morganii; read-out: MIC
Morganella morganii [45] = test: In vitro minimal inhibitory concentration (MIC) of compound in combination with Ceftazidime (CAZ) showed synergic activity against Morganella morganii 36030; type: functional
Pseudomonas aeruginosa [46] = test: microbe, parasite or virus in culture
Pseudomonas aeruginosa [47] = test: microbe, parasite or virus in culture; remark: listed apart in the source

Question: What does the source list for CCN1CCN(C(=O)NC(C(=O)N[C@@H]2C(=O)N3[C@@H]2SC(C)(C)[C@@H]3C(=O)O)c2ccccc2)C(=O)C1=O.C[C@]1(Cn2ccnn2)[C@H](C(=O)[O-])N2C(=O)CC2S1(=O)=O.[Na+] (stereo not given in full)?
Answer: MIC (Citrobacter freundii [1]): 0.78 µg/mL; MIC (Citrobacter freundii [2]): 200 µg/mL; MIC (Escherichia coli [3]): 3.13 µg/mL; MIC (Klebsiella aerogenes [4]): 12.5 µg/mL; MIC (Klebsiella aerogenes [5]): 12.5 µg/mL; MIC (Enterobacter cloacae [6]): 6.25 µg/mL; MIC (Enterobacter cloacae [7]): 50 µg/mL; MIC (Enterobacter cloacae [8]): 25 µg/mL; MIC (Escherichia coli [9]): ≤ 0.2 µg/mL; MIC (Escherichia coli [10]): 0.78 µg/mL; MIC (Escherichia coli [11]): 3.13 µg/mL; MIC (Escherichia coli [12]): 1.56 µg/mL; MIC (Klebsiella pneumoniae [13]): 6.25 µg/mL; MIC (Morganella morganii [14]): ≤ 0.2 µg/mL; MIC (Pseudomonas aeruginosa [15]): 12.5 µg/mL; MIC (Proteus vulgaris [16]): 1.56 µg/mL; MIC (Staphylococcus aureus [17]): 0.39 µg/mL; MIC (Escherichia coli [18]): 1.56 µg/mL; MIC (Serratia marcescens): 0.78 µg/mL; MIC (Klebsiella aerogenes [19]): 100 µg/mL; MIC (Staphylococcus aureus [20]): 0.78 µg/mL

Question: CC(C)(O/N=C(\C(=O)N[C@@H]1C(=O)N2C(C(=O)[O-])=C(C[n+]3ccccc3)CS[C@H]12)c1csc(N)n1)C(=O)O [CEFTAZIDIME] was tested. Which MIC (Citrobacter freundii [21]) did it give?
Answer: 400 µg/mL (≈ 732 µM)

Question: And the MIC (Klebsiella aerogenes [22])?
Answer: 12.5 µg/mL (≈ 22.9 µM)

Question: And the MIC (Klebsiella aerogenes [23])?
Answer: 12.5 µg/mL (≈ 22.9 µM)

Question: And the MIC (Klebsiella aerogenes [24])?
Answer: 200 µg/mL (≈ 366 µM)

Question: And the MIC (Klebsiella aerogenes [25])?
Answer: 8 µg/mL (≈ 14.6 µM)

Question: And the MIC (Enterobacter cloacae [26])?
Answer: 25 µg/mL (≈ 45.7 µM)

Question: What about the MIC (Enterobacter cloacae [27]) of the same compound?
Answer: 200 µg/mL (≈ 366 µM)

Question: And the MIC (Enterobacter cloacae [28])?
Answer: 100 µg/mL (≈ 183 µM)

Question: What about the MIC (Enterobacter cloacae [29]) of the same compound?
Answer: 2 µg/mL (≈ 3.66 µM)

Question: What about the MIC (Enterobacter cloacae [30]) of the same compound?
Answer: 2 µg/mL (≈ 3.66 µM)

Question: And the MIC (Escherichia coli [31])?
Answer: 25 µg/mL (≈ 45.7 µM)

Question: And the MIC (Escherichia coli [32])?
Answer: 12.5 µg/mL (≈ 22.9 µM)

Question: What about the MIC (Klebsiella pneumoniae [33]) of the same compound?
Answer: 100 µg/mL (≈ 183 µM)

Question: What about the MIC (Morganella morganii [34]) of the same compound?
Answer: 25 µg/mL (≈ 45.7 µM)

Question: What about the MIC (Morganella morganii [34]; Morganella morganii, read-out: MIC) of the same compound?
Answer: > 32 µg/mL

Question: What about the MIC (Morganella morganii [35]) of the same compound?
Answer: > 32 µg/mL

Question: And the MIC (Pseudomonas aeruginosa [36])?
Answer: 25 µg/mL (≈ 45.7 µM)

Question: And the MIC (Pseudomonas aeruginosa [37])?
Answer: 32 µg/mL (≈ 58.5 µM)

Question: What about the MIC (Pseudomonas aeruginosa [38]) of the same compound?
Answer: 16 µg/mL (≈ 29.3 µM)

Question: And the MIC (Proteus vulgaris [39])?
Answer: 12.5 µg/mL (≈ 22.9 µM)

Question: And the MIC (Citrobacter freundii [40])?
Answer: 50 µg/mL (≈ 91.5 µM)

Question: How did the MIC (Klebsiella aerogenes [41]) turn out when CC(C)(O/N=C(\C(=O)NC1C(=O)N2C(C(=O)[O-])=C(C[n+]3ccccc3)CSC12)c1csc(N)n1)C(=O)O.CO/N=C/[C@@]1(C)[C@H](C(=O)[O-])N2C(=O)CC2S1(=O)=O.[Na+] (stereo not given) was run?
Answer: 0.5 µg/mL

Question: What about the MIC (Enterobacter cloacae [42]) of the same compound?
Answer: < 0.25 µg/mL

Question: And the MIC (Enterobacter cloacae [43])?
Answer: < 0.25 µg/mL

Question: And the MIC (Morganella morganii [44])?
Answer: < 0.25 µg/mL

Question: What about the MIC (Morganella morganii [45]) of the same compound?
Answer: < 0.25 µg/mL

Question: What about the MIC (Pseudomonas aeruginosa [46]) of the same compound?
Answer: 32 µg/mL

Question: And the MIC (Pseudomonas aeruginosa [47])?
Answer: 16 µg/mL

Question: Which results are given for CC(=O)[C@@]1(C)[C@H](C(=O)[O-])N2C(=O)CC2S1(=O)=O.CCN1CCN(C(=O)NC(C(=O)N[C@@H]2C(=O)N3[C@@H]2SC(C)(C)[C@@H]3C(=O)O)c2ccccc2)C(=O)C1=O.[Na+] (stereo not given in full)?
Answer: MIC (Citrobacter freundii [1]): 1.56 µg/mL; MIC (Citrobacter freundii [2]): 12.5 µg/mL; MIC (Escherichia coli [3]): 3.13 µg/mL; MIC (Klebsiella aerogenes [4]): 3.13 µg/mL; MIC (Klebsiella aerogenes [5]): 6.25 µg/mL; MIC (Enterobacter cloacae [6]): 6.25 µg/mL; MIC (Enterobacter cloacae [7]): 25 µg/mL; MIC (Enterobacter cloacae [8]): 12.5 µg/mL; MIC (Escherichia coli [9]): 1.56 µg/mL; MIC (Escherichia coli [10]): 1.56 µg/mL; MIC (Escherichia coli [11]): 1.56 µg/mL; MIC (Escherichia coli [12]): 3.13 µg/mL; MIC (Klebsiella pneumoniae [13]): 12.5 µg/mL; MIC (Morganella morganii [14]): 0.39 µg/mL; MIC (Pseudomonas aeruginosa [15]): 6.25 µg/mL; MIC (Proteus vulgaris [16]): 25 µg/mL; MIC (Staphylococcus aureus [17]): 3.13 µg/mL; MIC (Escherichia coli [18]): 1.56 µg/mL; MIC (Serratia marcescens): 3.13 µg/mL; MIC (Klebsiella aerogenes [19]): 12.5 µg/mL; MIC (Staphylococcus aureus [20]): 6.26 µg/mL

From ChEMBL document CHEMBL1129860, “Studies on penam sulfones III. Synthesis and -lactamase inhibitory activity of sodium (6R)-6-(-hydroxybenzyl)-2-methoxyiminomethyl-2-methylpenam-3-carboxylate 1,1-dioxide and sodium 2-acyl-2-methylpenam-3-carboxylate 1,1-dioxide” (1997)
